In patent publication US20020165128A1, “Compositions and methods for proteolytically inactivating infectious agents using lactoferrin and related molecules” (priority 1998, published 2002):

Experiments:
[1] = target: T1, lactoferrin-associated proteolysis of H. influenzae Hap (Homo sapiens, UniProt P02788); experiment: Inhibition of lactoferrin-associated proteolysis of Hap by serine protease inhibitor; assay type: cell-based; conditions: 7.5 mM inhibitor in isopropanol, DB117/HapS243A
T1 construct: Lactoferrin amino acids are numbered beginning with the first residue in the mature protein (lacking the signal peptide); purchased Agennix Corporation; host or cells: Aspergillus awamori
T1 sequence (P02788 20-710): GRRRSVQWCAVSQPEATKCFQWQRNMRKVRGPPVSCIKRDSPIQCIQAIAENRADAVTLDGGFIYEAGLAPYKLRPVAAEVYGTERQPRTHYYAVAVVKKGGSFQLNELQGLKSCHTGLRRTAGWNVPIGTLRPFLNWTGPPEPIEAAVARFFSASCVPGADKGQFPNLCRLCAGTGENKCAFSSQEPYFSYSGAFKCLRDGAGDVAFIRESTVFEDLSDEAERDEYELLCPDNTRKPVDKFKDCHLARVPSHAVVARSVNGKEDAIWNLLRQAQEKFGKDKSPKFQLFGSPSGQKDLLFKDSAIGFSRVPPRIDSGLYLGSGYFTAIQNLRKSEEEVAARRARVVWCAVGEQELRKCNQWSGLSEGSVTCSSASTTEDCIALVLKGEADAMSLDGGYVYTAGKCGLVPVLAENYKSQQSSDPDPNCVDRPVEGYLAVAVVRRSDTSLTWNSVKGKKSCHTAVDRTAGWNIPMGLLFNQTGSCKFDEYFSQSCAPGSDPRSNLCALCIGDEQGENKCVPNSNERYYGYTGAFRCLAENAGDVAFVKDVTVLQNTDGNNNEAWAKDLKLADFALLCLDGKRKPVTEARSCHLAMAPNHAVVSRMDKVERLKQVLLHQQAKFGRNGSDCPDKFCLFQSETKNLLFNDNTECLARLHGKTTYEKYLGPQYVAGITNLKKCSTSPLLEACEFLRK
Description: To determine whether lactoferrin was functioning as a serine protease, the ability of phenylmethylsulfonyl fluoride (PMSF), a broad inhibitor of serine proteases, to inhibit degradation of Hap was examined. DB117/HapS243A was incubated in PBS (Lane 1), PBS with 430 nM A. awamori recombinant lactoferrin (Lane 2), PBS with 430 nM recombinant lactoferrin and 7.5% isopropanol (Lane 3), or PBS with recombinant lactoferrin and 7.5 mM PMSF in isopropanol (Lane 4). Whole cell lysates were prepared and examined by Western blot analysis with antiserum Rab 730, which reacts with the Hap preprotein, HapS, and Hap. The arrowhead indicates the Hap preprotein, and the arrows indicate Hap degradation products.

[2] = target: lactoferrin extraction of the IgA1 protease preprotein (Homo sapiens, UniProt P02788); assay type: cell-based; conditions: 10 mM inhibitor
Chain of lactoferrin extraction of the IgA1 protease preprotein (P02788 20-710): as above

SMILES: O=S(=O)(F)Cc1ccccc1 [PMSF, phenylmethylsulfonyl fluoride]
- inhibition of proteolysis of Hap produced by 430 nM recombinant lactoferrin [1]: significantly inhibited
- inhibition of lactoferrin extraction of IgA1 protease preprotein [2]: inhibited
